Measured values taken from US20250171451A1, “NOVEL HETEROCYCLIC COMPOUND AND PHARMACEUTICAL COMPOSITION COMPRISING SAME” (Samjin Pharmaceutical Co., Ltd., priority 2022, published 2025).

What was measured:
[1] = test system: TEAD response element (TRE) luciferase reporter in MCF-7 cell lines; experiment: TEAD response element (TRE) reporter assay; type: cell-based; details: Homo sapiens, MCF7; 0.2 μM compound, 24 hours, MCF-7 TEAD reporter cells, relative to vehicle (1% DMSO)
Description: MCF-7 cell lines injected with TEAD reporter genes expressing firefly luciferase upon activation of TEAD response element (TRE) were obtained from BPS bioscience (#60618). The TEAD reporter genes were injected to stable expression in the MCF-7 cell lines.
TEAD reporter genes expressing firefly luciferase upon activation of TEAD response element (TRE) were injected with TEAD reporter genes to ensure stable expression of the TEAD reporter genes. Here, the TEAD reporter genes expresses firefly luciferase upon activation of TEAD response element (TRE). The cells were cultured in a cell-only culture medium (BPS bioscience) to which 10 μg/mL insulin (Sigma) was added at 37° C. and 5% CO2.
In 24 hours after dispensing said cells into a 96-well plate, each of the compounds of the examples or a vehicle solvent (final 1% DMSO) was treated by being diluted with a serum-free culture medium so that the final concentration became 0.2 μM. In 24 hours after said treatment, a luciferase assay working solution (ONE-Step Luciferase assay reagent; BPS bioscience) containing a luciferase substrate was treated in each well at 100 μL, and then left in a shaker for 15 minutes to be well mixed. Then, a degree of luminescence generated by luciferase expressed according to TEAD activation was measured by a microplate reader (TECAN). A relative activity of luciferase […], and the results are shown in table 8 below.

[2] = molecular target: T1, recombinant GST-TEAD1 proteins (209 to 426 a.a.) (Homo sapiens, UniProt P28347); experiment: Evaluation of palmitoylation of TEAD protein; type: biochemical; details: 5 μM compound, 15 minutes preincubation, 3 μM alkyne palmitoyl-CoA 30 minutes, pH 6.4, vs DMSO control
T1 construct: recombinant GST-TEAD1 proteins (209 to 426 a.a.)
Description: Each compound corresponding to a concentration of 5 μM was added to recombinant GST-TEAD1 proteins (209 to 426 a.a.) and cultured for 15 minutes. For an autopalmitoylation reaction of proteins after culturing, 3 μM alkyne palmitoyl-CoA (Cayman chemical) and 50 mM MES buffer (pH 6.4) were added and cultured for 30 minutes, after which 1% of sodium dodecyl sulfate (SDS) was added to stop the reaction. After that, biotinylation was performed through a CLICK (Click chemistry tools) reaction, and then a protein solution was concentrated to prepare a sample.
Analysis of the sample was performed using SDS-PAGE and streptavidin HRP (Thermo scientific). The resulting values were quantified using an Image J (NIH). For the intensity of the band obtained from Streptavidin blot, a palmitoylation inhibitory activity was analyzed based on the control group (DMSO). The normalization of each sample was performed using an anti-GST (91G1) (cell signaling) antibody.

T1 sequence (P28347 209-426): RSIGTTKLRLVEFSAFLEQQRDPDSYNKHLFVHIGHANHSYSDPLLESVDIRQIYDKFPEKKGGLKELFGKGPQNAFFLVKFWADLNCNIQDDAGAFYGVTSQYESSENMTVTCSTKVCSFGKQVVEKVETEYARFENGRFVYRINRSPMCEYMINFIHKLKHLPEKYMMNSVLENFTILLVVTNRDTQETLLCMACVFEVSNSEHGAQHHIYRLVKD

`C=CC(=O)Nc1cnc2c(c1)c(C)nn2-c1ccc(C(F)(F)F)c(OC)c1` [Compound 64, N-(1-(3-methoxy-4-(trifluoromethyl)phenyl)-3-methyl-1H-pyrazolo[3,4-b]pyridin-5-yl)acrylamide] was tested, and the inhibition at 0.2 µM [1] was > 50% and the inhibition at 5 µM [2] was 40 to 80%.

For `C=CC(=O)Nc1cnc2c(c1)c(C)nn2Cc1ccc(C(F)F)cc1` [Compound 67, N-(1-(4-(difluoromethyl)benzyl)-3-methyl-1H-pyrazolo[3,4-b]pyridin-5-yl)acrylamide], the inhibition at 0.2 µM [1] was 30 to 50% and the inhibition at 5 µM [2] was < 40%.

In the case of `C=CC(=O)Nc1cnc2c(c1)c(C)nn2C1=CCC(C(F)(F)F)CC1` (stereo not drawn) [Compound 68, N-(3-methyl-1-(4-(trifluoromethyl)cyclohex-1-en-1-yl)-1H-pyrazolo[3,4-b]pyridin-5-yl)acrylamide], the inhibition at 0.2 µM [1] was > 50% and the inhibition at 5 µM [2] was 40 to 80%.

For `C=CC(=O)Nc1cnc2c(c1)c(C)nn2-c1ccc(C(F)F)cc1` [Compound 69, N-(1-(4-(difluoromethyl)phenyl)-3-methyl-1H-pyrazolo[3,4-b]pyridin-5-yl)acrylamide], the inhibition at 0.2 µM [1] was 30 to 50% and the inhibition at 5 µM [2] was 40 to 80%.

In the case of `C=CC(=O)Nc1cnc2c(c1)c(C)nn2-c1ccc(F)cc1` [Compound 70, N-(1-(4-fluorophenyl)-3-methyl-1H-pyrazolo[3,4-b]pyridin-5-yl)acrylamide], the inhibition at 0.2 µM [1] was 30 to 50% and the inhibition at 5 µM [2] was < 40%.

In the case of `C=CC(=O)Nc1cnc2c(c1)c(C)cn2Cc1ccc(C(F)F)cc1` [Compound 71, N-(1-(4-(difluoromethyl)benzyl)-3-methyl-1H-pyrrolo[2,3-b]pyridin-5-yl)acrylamide], the inhibition at 0.2 µM [1] was 30 to 50% and the inhibition at 5 µM [2] was < 40%.

With `C=CC(=O)Nc1cnc2c(c1)c(C)nn2-c1ccc(C(F)(F)F)c(Cl)c1` [Compound 72, N-(1-(3-chloro-4-(trifluoromethyl)phenyl)-3-methyl-1H-pyrazolo[3,4-b]pyridin-5-yl)acrylamide] the inhibition at 0.2 µM [1] was 30 to 50% and the inhibition at 5 µM [2] was 40 to 80%.

With `C=CC(=O)Nc1cnc2c(c1)c(C)nn2-c1cccc(OC)c1` [Compound 73, N-(1-(3-methoxyphenyl)-3-methyl-1H-pyrazolo[3,4-b]pyridin-5-yl)acrylamide] the inhibition at 0.2 µM [1] was < 30% and the inhibition at 5 µM [2] was < 40%.

With `C=CC(=O)Nc1cnc2c(c1)c(C)nn2-c1ccc(C(F)(F)F)c(C)c1` [Compound 74, N-(3-methyl-1-(3-methyl-4-(trifluoromethyl)phenyl)-1H-pyrazolo[3,4-b]pyridin-5-yl)acrylamide] the inhibition at 0.2 µM [1] was > 50% and the inhibition at 5 µM [2] was 40 to 80%.

`C=CC(=O)Nc1cnc2c(c1)c(C)nn2-c1ccccc1C` [Compound 75, N-(3-methyl-1-(o-tolyl)-1H-pyrazolo[3,4-b]pyridin-5-yl)acrylamide] was tested, and the inhibition at 0.2 µM [1] was < 30% and the inhibition at 5 µM [2] was 40 to 80%.

With `C=CC(=O)Nc1cnc2c(c1)c(C)nn2-c1cc(F)cc(F)c1` [Compound 76, N-(1-(3,5-difluorophenyl)-3-methyl-1H-pyrazolo[3,4-b]pyridin-5-yl)acrylamide] the inhibition at 0.2 µM [1] was 30 to 50% and the inhibition at 5 µM [2] was 40 to 80%.

With `C=CC(=O)Nc1cnc2c(c1)c(C)nn2-c1ccc(OCC(C)C)cc1` [Compound 78, N-(1-(4-isobutoxyphenyl)-3-methyl-1H-pyrazolo[3,4-b]pyridin-5-yl)acrylamide] the inhibition at 0.2 µM [1] was < 30% and the inhibition at 5 µM [2] was 40 to 80%.

Work on `C=CC(=O)Nc1cnc2c(c1)c(C)nn2-c1ccc(C(C)(C)C)cc1` [Compound 79, N-(1-(4-(tert-butyl)phenyl)-3-methyl-1H-pyrazolo[3,4-b]pyridin-5-yl)acrylamide] yielded an inhibition at 0.2 µM [1] of 30 to 50% and an inhibition at 5 µM [2] of 40 to 80%.

`C=CC(=O)Nc1cnc2c(c1)c(C)nn2-c1ccc(C(C)CC)cc1` (stereo not drawn) [Compound 80, N-(1-(4-(sec-butyl)phenyl)-3-methyl-1H-pyrazolo[3,4-b]pyridin-5-yl)acrylamide] gave an inhibition at 0.2 µM [1] of 30 to 50% and an inhibition at 5 µM [2] of 40 to 80%.

In the case of `C=CC(=O)Nc1cnc2c(c1)c(C)nn2-c1ccccc1OC` [Compound 81, N-(1-(2-methoxyphenyl)-3-methyl-1H-pyrazolo[3,4-b]pyridin-5-yl)acrylamide], the inhibition at 0.2 µM [1] was < 30% and the inhibition at 5 µM [2] was < 40%.

`C=CC(=O)Nc1cnc2c(c1)c(C)nn2-c1ccccc1C(F)(F)F` [Compound 82, N-(3-methyl-1-(2-(trifluoromethyl)phenyl)-1H-pyrazolo[3,4-b]pyridin-5-yl)acrylamide] was tested, and the inhibition at 0.2 µM [1] was < 30% and the inhibition at 5 µM [2] was < 40%.

With `C=CC(=O)Nc1cnc2c(c1)c(C)nn2-c1ccccc1Br` [Compound 83, N-(1-(2-bromophenyl)-3-methyl-1H-pyrazolo[3,4-b]pyridin-5-yl)acrylamide] the inhibition at 0.2 µM [1] was < 30% and the inhibition at 5 µM [2] was < 40%.

For `C=CC(=O)Nc1cnc2c(c1)c(C)nn2-c1cc(OC)cc(OC)c1` [Compound 84, N-(1-(3,5-dimethoxyphenyl)-3-methyl-1H-pyrazolo[3,4-b]pyridin-5-yl)acrylamide], the inhibition at 0.2 µM [1] was < 30% and the inhibition at 5 µM [2] was < 40%.

`C=CS(=O)(=O)Nc1cnc2c(c1)c(C)nn2-c1ccc(C(F)(F)F)cc1` [Compound 85, N-(3-methyl-1-(4-(trifluoromethyl)phenyl)-1H-pyrazolo[3,4-b]pyridin-5-yl)ethenesulfonamide] was tested, and the inhibition at 0.2 µM [1] was > 50% and the inhibition at 5 µM [2] was > 80%.

With `C=CC(=O)Nc1cnc2c(c1)c(C)nn2-c1ccc(C(F)(F)F)c(O)c1` [Compound 87, N-(1-(3-hydroxy-4-(trifluoromethyl)phenyl)-3-methyl-1H-pyrazolo[3,4-b]pyridin-5-yl)acrylamide] the inhibition at 0.2 µM [1] was < 30% and the inhibition at 5 µM [2] was 40 to 80%.

With `CC=CC(=O)Nc1cnc2c(c1)c(C)nn2-c1ccc(C(F)(F)F)cc1` [Compound 88, N-(3-methyl-1-(4-(trifluoromethyl)phenyl)-1H-pyrazolo[3,4-b]pyridin-5-yl)but-2-enamide] the inhibition at 0.2 µM [1] was 30 to 50% and the inhibition at 5 µM [2] was 40 to 80%.

In the case of `C=CC(=O)Nc1cnc2c(c1)c(C)nn2-c1ccc(C(F)(F)F)s1` [Compound 89, N-(3-methyl-1-(5-(trifluoromethyl)thiophen-2-yl)-1H-pyrazolo[3,4-b]pyridin-5-yl)acrylamide], the inhibition at 0.2 µM [1] was > 50% and the inhibition at 5 µM [2] was 40 to 80%.

In the case of `C=CC(=O)N(C)c1cnc2c(c1)c(C)nn2-c1ccc(Cl)cc1` [Compound 91, N-(1-(4-chlorophenyl)-3-methyl-1H-pyrazolo[3,4-b]pyridin-5-yl)-N-methylacrylamide], the inhibition at 0.2 µM [1] was > 50% and the inhibition at 5 µM [2] was > 80%.

In the case of `C=CC(=O)Nc1cnc2c(c1)c(C)nn2-c1ccc(F)nc1` [Compound 93, N-(1-(6-fluoropyridin-3-yl)-3-methyl-1H-pyrazolo[3,4-b]pyridin-5-yl)acrylamide], the inhibition at 0.2 µM [1] was 30 to 50% and the inhibition at 5 µM [2] was 40 to 80%.

`C=CC(=O)Nc1cnc2c(c1)c(C)nn2-c1cccnc1` [Compound 94, N-(3-methyl-1-(pyridin-3-yl)-1H-pyrazolo[3,4-b]pyridin-5-yl)acrylamide] was tested, and the inhibition at 0.2 µM [1] was < 30% and the inhibition at 5 µM [2] was < 40%.

With `C=CC(=O)Nc1cnc2c(c1)c(C)nn2-c1ccc(Cl)c(Cl)c1` [Compound 96, N-(1-(3,4-dichlorophenyl)-3-methyl-1H-pyrazolo[3,4-b]pyridin-5-yl)acrylamide] the inhibition at 0.2 µM [1] was > 50% and the inhibition at 5 µM [2] was 40 to 80%.

With `C=CC(=O)Nc1cnc2c(c1)c(C)nn2-c1ccc(C(F)(F)F)cn1` [Compound 97, N-(3-methyl-1-(5-(trifluoromethyl)pyridin-2-yl)-1H-pyrazolo[3,4-b]pyridin-5-yl)acrylamide] the inhibition at 0.2 µM [1] was > 50% and the inhibition at 5 µM [2] was < 40%.

For `C=CC(=O)Nc1cnc2c(c1)c(C)nn2-c1ccc(O)cc1` [Compound 98, N-(1-(4-hydroxyphenyl)-3-methyl-1H-pyrazolo[3,4-b]pyridin-5-yl)acrylamide], the inhibition at 0.2 µM [1] was < 30% and the inhibition at 5 µM [2] was < 40%.

`C=CC(=O)Nc1cnc2c(c1)c(C)nn2-c1cnc(C(F)(F)F)c(C)c1` [Compound 99, N-(3-methyl-1-(5-methyl-6-(trifluoromethyl)pyridin-3-yl)-1H-pyrazolo[3,4-b]pyridin-5-yl)acrylamide] was tested, and the inhibition at 0.2 µM [1] was > 50% and the inhibition at 5 µM [2] was 40 to 80%.

With `C=CC(=O)Nc1cnc2c(c1)c(C)nn2-c1ccnc(C(F)(F)F)c1` [Compound 100, N-(3-methyl-1-(2-(trifluoromethyl)pyridin-4-yl)-1H-pyrazolo[3,4-b]pyridin-5-yl)acrylamide] the inhibition at 0.2 µM [1] was > 50% and the inhibition at 5 µM [2] was < 40%.
